Results published in patent publication US12378249B2, “Isoquinoline compounds and uses thereof” (Genentech, Inc., priority 2018, dated 2025).

Target: HPK1 (Homo sapiens (Human), UniProt Q92918, S171E/T165E)
Assay: HPK1-FL HTRF Enzymatic Assay (HTRF)
Type: biochemical
Conditions: HPK full length T165E S171E 0.125 nM, ATP 1 mM, Biotin-SLP76 100 nM, read-out: HPK1 Ki (nM), H = HTRF
Description: Exemplary compounds of Formula (I) were tested to assess compound inhibition of HPK-1. The Ki for each exemplary compound was determined
Example B1: HPK1-FL HTRF Enzymatic Assay (“HTRF”)
HPK-FL enzyme phosphorylates Biotin-SLP-76 substrate in the presence of ATP at 1 mM and varying concentrations of test compound. Product is detected by FRET using Eu-anti-pSLP76 Ab and SA-XL665. Also see www.cisbio.com/HTRF for additional HTRF technology information.
• Echo555 compound dispenser • Agilent Bravo • Perkin Elmer Envision Final Assay Conditions:
Materials: • Assay plate: White ProxiPlate 384 F (PerkinElmer cat #6008289) • Kinase: HPK full length double mutant • Substrate: Biotin-SLP76 • ATP: 100 mM ATP • BSG: 2% BSG • DMSO: DMSO (Sigma cat #34869-100ML) • Reaction Buffer: H2O/50 mM HEPES, pH 7.5/10 mM MgCl2/2 mM TCEP/0.01% Brij-35/0.01% BSG • Detection mix:Eu-anti-pSLP76/SA-XL665 (Cisbio, #610SAXAC) Assay Procedure Ki determination:
To a 384 well Proxiplate with 80 nL compound or DMSO spotted on was added 4 μl/well kinase mix. The mixture was preincubated for 30 minutes and then 4 μl/well substrate mix was added. The solution was incubated for 60 min and then 4 μl/well detection mix was added. The solution was incubated for another 60 min. The plates were then loaded onto a Perkin Elmer Envision and the TR-FRET signal was measured at 615 and 665 nm. A ratio of […] was used to calculate the % activity at each concentration of compound.

Chain of HPK1 (Q92918 whole entry T165E/S171E): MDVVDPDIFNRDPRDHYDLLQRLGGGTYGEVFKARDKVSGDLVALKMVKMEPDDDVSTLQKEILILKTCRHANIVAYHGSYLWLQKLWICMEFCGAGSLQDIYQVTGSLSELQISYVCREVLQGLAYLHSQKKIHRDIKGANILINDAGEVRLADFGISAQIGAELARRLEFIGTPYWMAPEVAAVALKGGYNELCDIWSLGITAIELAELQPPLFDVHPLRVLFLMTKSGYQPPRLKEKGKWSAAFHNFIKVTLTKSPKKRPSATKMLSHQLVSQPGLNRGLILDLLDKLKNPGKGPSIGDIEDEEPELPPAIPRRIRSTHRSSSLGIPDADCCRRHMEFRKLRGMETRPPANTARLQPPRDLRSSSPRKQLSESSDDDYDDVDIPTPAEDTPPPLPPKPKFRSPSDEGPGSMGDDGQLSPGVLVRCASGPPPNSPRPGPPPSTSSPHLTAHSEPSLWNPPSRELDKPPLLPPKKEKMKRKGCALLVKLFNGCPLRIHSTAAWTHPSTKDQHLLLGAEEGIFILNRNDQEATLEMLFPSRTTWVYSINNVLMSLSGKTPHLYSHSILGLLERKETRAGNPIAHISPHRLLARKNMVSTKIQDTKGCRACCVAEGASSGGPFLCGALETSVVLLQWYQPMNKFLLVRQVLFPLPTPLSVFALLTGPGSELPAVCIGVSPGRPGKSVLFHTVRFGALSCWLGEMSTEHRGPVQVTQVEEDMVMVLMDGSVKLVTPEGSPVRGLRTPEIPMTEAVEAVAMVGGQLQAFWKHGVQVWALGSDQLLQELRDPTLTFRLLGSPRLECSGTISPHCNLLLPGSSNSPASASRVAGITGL

Structure (SMILES) | Ki
Cc1c(-c2cc3cc(Nc4cc5n(n4)CC(=O)N(C)CC5)ncc3cc2F)cnc2c1[C@](C)(O)CCO2 (single isomer, unassigned) [Compound 226b] | 1.9 nM
CN[C@@H]1CCc2c(-c3cc4cc(Nc5cc6n(n5)CC(=O)N(C)CC6)ncc4cc3F)cncc21 (single isomer, unassigned) [Compound 228a] | 8.3 nM
CN[C@H]1CCc2c(-c3cc4cc(Nc5cc6n(n5)CC(=O)N(C)CC6)ncc4cc3F)cncc21 (single isomer, unassigned) [Compound 228b] | 446 nM
Cc1c(-c2cc3cc(Nc4cc5n(n4)CC(=O)N(C)CC54CC4)ncc3cc2F)cnc2c1NCC[C@]2(C)O (single isomer, unassigned) [Compound 229a] | 0.09 nM
Cc1c(-c2cc3cc(Nc4cc5n(n4)CC(=O)N(C)CC54CC4)ncc3cc2F)cnc2c1NCC[C@@]2(C)O (single isomer, unassigned) [Compound 229b] | 0.016 nM
Cc1c(-c2cc(F)c3cnc(Nc4cc5n(n4)CC(=O)N(C)CC5)cc3c2)cnc2c1NCC[C@@]2(C)O (single isomer, unassigned) [Compound 231a] | 1.3 nM
Cc1c(-c2cc(F)c3cnc(Nc4cc5n(n4)CC(=O)N(C)CC5)cc3c2)cnc2c1NCC[C@]2(C)O (single isomer, unassigned) [Compound 231b] | 0.38 nM
CO[C@H]1CCNc2c1ncc(-c1cc(F)c3cnc(Nc4cc5n(n4)CC(=O)N(C)CC5)cc3c1)c2C (single isomer, unassigned) [Compound 234a] | 0.46 nM
CO[C@@H]1CCNc2c1ncc(-c1cc(F)c3cnc(Nc4cc5n(n4)CC(=O)N(C)CC5)cc3c1)c2C (single isomer, unassigned) [Compound 234b] | 2.1 nM
Cc1c(-c2cc3cc(Nc4cc5n(n4)CC(=O)N(C)CC5)ncc3cc2F)cnc2c1[C@@H](F)CCO2 (single isomer, unassigned) [Compound 235a] | 2.1 nM
Cc1c(-c2cc3cc(Nc4cc5n(n4)CC(=O)N(C)CC5)ncc3cc2F)cnc2c1[C@H](F)CCO2 (single isomer, unassigned) [Compound 235b] | 0.127 nM
Cc1c(-c2cc3cc(Nc4cc5n(n4)CC(=O)N(C)CC5)ncc3cc2F)cnc2c1NCC[C@@H]2O (single isomer, unassigned) [Compound 236a] | 0.076 nM
Cc1c(-c2cc3cc(Nc4cc5n(n4)CC(=O)N(C)CC5)ncc3cc2F)cnc2c1NCC[C@H]2O (single isomer, unassigned) [Compound 236b] | 0.062 nM
Cc1c(-c2cc(F)c3cnc(Nc4cc5n(n4)CC(=O)N(C)CC54CC4)cc3c2)cnc2c1NCC[C@@H]2O (single isomer, unassigned) [Compound 237a] | 0.332 nM
Cc1c(-c2cc(F)c3cnc(Nc4cc5n(n4)CC(=O)N(C)CC54CC4)cc3c2)cnc2c1NCC[C@H]2O (single isomer, unassigned) [Compound 237b] | 0.319 nM
Cc1c(-c2cc3cc(Nc4cc5n(n4)CC(=O)N(C)CC5)ncc3cc2F)cnc2c1NCC(C)(C)[C@H]2O (single isomer, unassigned) [Compound 241a] | 0.11 nM
Cc1c(-c2cc3cc(Nc4cc5n(n4)CC(=O)N(C)CC5)ncc3cc2F)cnc2c1NCC(C)(C)[C@@H]2O (single isomer, unassigned) [Compound 241b] | 0.265 nM
Cc1c(-c2cc3cc(Nc4cc5n(n4)CS(=O)(=O)N(C)C5)ncc3cc2F)cnc2c1NCC[C@@H]2O (single isomer, unassigned) [Compound 242a] | 0.457 nM

Structure (SMILES) | Ki
Cc1c(-c2cc3cc(Nc4cc5n(n4)CS(=O)(=O)N(C)C5)ncc3cc2F)cnc2c1NCC[C@H]2O (single isomer, unassigned) [Compound 242b] | 1.7 nM
Cc1c(-c2cc3cc(Nc4cc5n(n4)Cc4nccn4CC5)ncc3cc2F)cnc2c1NCC[C@@H]2O (single isomer, unassigned) [Compound 243a] | 0.013 nM
Cc1c(-c2cc3cc(Nc4cc5n(n4)Cc4nccn4CC5)ncc3cc2F)cnc2c1NCC[C@H]2O (single isomer, unassigned) [Compound 243b] | 0.02 nM
Cc1ccncc1-c1cc2cc(Nc3cc4n(n3)CC(=O)N(C)CC4)ncc2c(Cl)c1F [Compound 110, 2-[[8-Chloro-7-fluoro-6-(4-methylpyridin-3-yl)isoquinolin-3-yl]amino]-6-methyl-4H,5H,6H,7H,8H-pyrazolo[1,5-d][1,4]diazepin-7-one] | 4.6 nM
Cc1c(N)cncc1-c1cc2cc(Nc3cc4n(n3)CC(=O)N(C)CC43CC3)ncc2cc1F [Compound 111, 2-[[6-(5-amino-4-methyl-3-pyridyl)-7-fluoro-3-isoquinolyl]amino]-6-methyl-spiro[5,8-dihydropyrazolo[1,5-d][1,4]diazepine-4,1′-cyclopropane]-7-one] | 0.01 nM
Cc1c(N)cncc1-c1cc2cc(Nc3cc4n(n3)CS(=O)(=O)N(C)CC4C)ncc2cc1F (centres unmarked) [Compound 113, 2-((6-(5-amino-4-methylpyridin-3-yl)-7-fluoroisoquinolin-3-yl)amino)-4,6-dimethyl-5,6-dihydro-4H,8H-pyrazolo[5,1-e][1,2,6]thiadiazepine 7,7-dioxide] | 1.2 nM
Cc1ccncc1-c1cc2cc(Nc3cn4c(n3)CC(=O)N(C)CC4)ncc2c(Cl)c1F [Compound 114, 2-((8-chloro-7-fluoro-6-(4-methylpyridin-3-yl)isoquinolin-3-yl)amino)-7-methyl-6,7-dihydro-5H-imidazo[1,2-d][1,4]diazepin-8(9H)-one] | 75 nM
Cc1c(-c2cc3cc(Nc4cc5n(n4)CC(=O)N(C(C)C)CC5)ncc3c(Cl)c2F)cnc2c1NCCO2 [Compound 115, 2-((8-chloro-7-fluoro-6-(8-methyl-2,3-dihydro-1H-pyrido[2,3-b][1,4]oxazin-7-yl)isoquinolin-3-yl)amino)-6-isopropyl-5,6-dihydro-4H-pyrazolo[1,5-d][1,4]diazepin-7(8H)-one] | 0.2 nM
Cc1c(-c2cc3cc(Nc4cc5n(n4)CC(=O)N(C(C)C)CC5)ncc3cc2F)cnc2c1NCCO2 [Compound 116, 2-((7-fluoro-6-(8-methyl-2,3-dihydro-1H-pyrido[2,3-b][1,4]oxazin-7-yl)isoquinolin-3-yl)amino)-6-isopropyl-5,6-dihydro-4H-pyrazolo[1,5-d][1,4]diazepin-7(8H)-one] | 0.014 nM
Cc1c(N)cncc1-c1cc(Cl)c2cnc(Nc3cc4n(n3)CC(=O)N(C(C)C)CC4)cc2c1 [Compound 117, 2-((6-(5-amino-4-methylpyridin-3-yl)-8-chloroisoquinolin-3-yl)amino)-6-isopropyl-5,6-dihydro-4H-pyrazolo[1,5-d][1,4]diazepin-7(8H)-one] | 0.64 nM
Cc1c(N)cncc1-c1cc2cc(Nc3cc4n(n3)CC(=O)N(C)C(C)(C)C4)ncc2cc1F [Compound 120, 2-((6-(5-amino-4-methylpyridin-3-yl)-7-fluoroisoquinolin-3-yl)amino)-5,5,6-trimethyl-5,6-dihydro-4H-pyrazolo[1,5-d][1,4]diazepin-7(8H)-one] | 0.04 nM
Cc1c(N)cncc1-c1cc2cc(Nc3cc4n(n3)CC(=O)N(C(C)C)CC4)ncc2c(C)c1F [Compound 121, 2-((6-(5-amino-4-methylpyridin-3-yl)-7-fluoro-8-methylisoquinolin-3-yl)amino)-6-isopropyl-5,6-dihydro-4H-pyrazolo[1,5-d][1,4]diazepin-7(8H)-one] | 0.08 nM
Cc1ccncc1-c1ccc2cnc(Nc3cc4n(n3)CC(=O)N(C(C)C)CC4)cc2c1 [Compound 122, 6-isopropyl-2-[[6-(4-methyl-3-pyridyl)-3-isoquinolyl]amino]-5,8-dihydro-4H-pyrazolo[1,5-d][1,4]diazepin-7-one] | 1 nM
Cc1c(-c2cc3cc(Nc4cc5n(n4)CC(=O)N(C(C)C)CC5)ncc3cc2F)cnc2c1NC(=O)CO2 [Compound 123, 7-[7-fluoro-3-[(6-isopropyl-7-oxo-5,8-dihydro-4H-pyrazolo[1,5-d][1,4]diazepin-2-yl)amino]-6-isoquinolyl]-8-methyl-1H-pyrido[2,3-b][1,4]oxazin-2-one] | 0.11 nM
CC(C)N1CCc2cc(Nc3cc4cc(C(=O)N5CCN(C)CC5)c(F)cc4cn3)nn2CC1=O [Compound 124, 2-((7-fluoro-6-(4-methylpiperazine-1-carbonyl)isoquinolin-3-yl)amino)-6-isopropyl-5,6-dihydro-4H-pyrazolo[1,5-d][1,4]diazepin-7(8H)-one] | 63 nM
Cc1c(N)cncc1-c1cc2cc(Nc3cc4n(n3)Cc3nccn3CC4)ncc2cc1F [Compound 125, N-(6-(5-amino-4-methylpyridin-3-yl)-7-fluoroisoquinolin-3-yl)-5,6-dihydro-11H-imidazo[1,2-a]pyrazolo[1,5-d][1,4]diazepin-8-amine] | 0.03 nM
Cc1ncc(-c2cc3cc(Nc4cc5n(n4)CC(=O)N(C(C)C)CC5)ncc3cc2F)c(C)c1N [Compound 126, 2-((6-(5-amino-4,6-dimethylpyridin-3-yl)-7-fluoroisoquinolin-3-yl)amino)-6-isopropyl-5,6-dihydro-4H-pyrazolo[1,5-d][1,4]diazepin-7(8H)-one] | 0.148 nM
